Laboratory results reported in US6737383B1, “Herbicidal oxadiazolidines” (priority 1999, dated 2004).

Key:
bedstraw = assay: Test B pre/postemergence bedstraw; type: in vivo, Galium aparine
Outline: (§1)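 Test chemicals in a non-phytotoxic solvent mixture with surfactant were sprayed preemergence onto planted seeds and postemergence onto plants 2 to 18 cm tall (1- to 4-leaf stage). After twelve to sixteen days in a greenhouse, injury was visually rated against untreated controls from 0 (no effect) to 10 (complete control).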

blackgrass = assay: Test B pre/postemergence blackgrass; type: in vivo, Alopecurus myosuroides
Outline: as §1

surinam grass = assay: Test B pre/postemergence surinam grass; type: in vivo, Brachiaria decumbens
Outline: as §1

cocklebur = assay: Test B pre/postemergence cocklebur; type: in vivo, Xanthium strumarium
Outline: as §1

corn = assay: Test B pre/postemergence corn; type: in vivo, Zea mays
Outline: as §1

crabgrass = assay: Test B pre/postemergence crabgrass; type: in vivo, Digitaria sanguinalis
Outline: as §1

giant foxtail = assay: Test B pre/postemergence giant foxtail; type: in vivo, Setaria faberii
Outline: as §1

morningglory = assay: Test B pre/postemergence morningglory; type: in vivo, Ipomoea hederacea
Outline: as §1

pigweed = assay: Test B pre/postemergence pigweed; type: in vivo, Amaranthus retroflexus
Outline: as §1

rape = assay: Test B pre/postemergence rape; type: in vivo, Brassica napus
Outline: as §1

soybean = assay: Test B pre/postemergence soybean; type: in vivo, Glycine max
Outline: as §1

sugar beet = assay: Test B pre/postemergence sugar beet; type: in vivo, Beta vulgaris
Outline: as §1

velvetleaf = assay: Test B pre/postemergence velvetleaf; type: in vivo, Abutilon theophrasti
Outline: as §1

wheat = assay: Test B pre/postemergence wheat; type: in vivo, Triticum aestivum
Outline: as §1

wild oat = assay: Test B pre/postemergence wild oat; type: in vivo, Avena fatua
Outline: as §1

purple nutsedge = assay: Test B pre/postemergence purple nutsedge; type: in vivo, Cyperus rotundus
Outline: as §1

rice = assay: Test B flood test rice; type: in vivo, Oryza sativa
Outline: (§2)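 Flood test on plants grown to the 2-leaf stage; treated plants kept in greenhouse twelve to sixteen days, then visually rated against controls on a 0 (no effect) to 10 (complete control) scale.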

smallflower flatsedge = assay: Test B flood test smallflower flatsedge; type: in vivo, Cyperus difformis
Outline: as §2

duck salad = assay: Test B flood test duck salad; type: in vivo, Heteranthera limosa
Outline: as §2

bamyardgrass = assay: Test B flood test barnyardgrass; type: in vivo, Echinochloa crus-galli
Outline: as §2

[1] = Postemergence, Rate 62 g/ha, scale of 0 to 10, 0 is no effect, 10 is complete control
[2] = Postemergence, Rate 125 g/ha, scale of 0 to 10 where 0 is no effect and 10 is complete control
[3] = Preemergence, Rate 62 g/ha, scale 0 to 10 (0 no effect, 10 complete control)
[4] = Preemergence, Rate 125 g/ha, scale of 0 to 10 where 0 is no effect and 10 is complete control
[5] = Preemergence, Rate 500 g/ha, scale of 0 to 10 where 0 is no effect and 10 is complete control
[6] = Postemergence, Rate 250 g/ha, scale of 0 to 10, 0 is no effect, 10 is complete control
[7] = Postemergence, Rate 500 g/ha, scale of 0 to 10 where 0 is no effect and 10 is complete control
[8] = Rate 62 g/ha, flood test species, Pre-emergence, visual evaluation after twelve to sixteen days
[9] = Rate 125 g/ha, under heading Pre-emergence, flood test species, visual evaluation after twelve to sixteen days
[10] = Rate 250 g/ha, Pre-emergence (flood test species), scale 0 to 10, 0 is no effect, 10 is complete control
[11] = Rate 500 g/ha, Pre-emergence section of Table B, 0 to 10 scale (0 no effect, 10 complete control)

CC(C)N(C(=O)n1oc(=O)n(CC(=O)C(F)(F)F)c1=O)c1ccc(F)cc1F [Compound 598]
0: Bedstraw plant response rating (bedstraw; [1]) | Plant response rating, Bedstraw (bedstraw; [2]) | Bedstraw plant response rating (bedstraw; [3]) | Bedstraw plant response rating (bedstraw; [4]) | Bedstraw plant response rating (0 to 10 scale) (bedstraw; Preemergence, Rate 250 g/ha) | Bedstraw plant response rating (bedstraw; [5]) | Blackgrass plant response rating (blackgrass; [1]) | Plant response rating, Blackgrass (blackgrass; [2]) | Blackgrass plant response rating (blackgrass; [6]) | Plant response rating, Blackgrass (blackgrass; [7]) | Blackgrass plant response rating (blackgrass; [3]) | Blackgrass plant response rating (blackgrass; [4]) | Blackgrass plant response rating (0 to 10 scale) (blackgrass; Preemergence, Rate 250 g/ha) | Blackgrass plant response rating (blackgrass; [5]) | B. signalgrass plant response rating (surinam grass; [1]) | Plant response rating, B. signalgrass (surinam grass; [2]) | B. signalgrass plant response rating (surinam grass; [6]) | Plant response rating, B. signalgrass (surinam grass; [7]) | B. signalgrass plant response rating (surinam grass; [3]) | B. signalgrass plant response rating (surinam grass; [4]) | B. signalgrass plant response rating (0 to 10 scale, 0 is no effect, 10 is complete control) (surinam grass; Preemergence, Rate 250 g/ha) | B. signalgrass plant response rating (surinam grass; [5]) | Cocklebur plant response rating (cocklebur; [1]) | Plant response rating, Cocklebur (cocklebur; [2]) | Cocklebur plant response rating (cocklebur; [6]) | Plant response rating, Cocklebur (cocklebur; [7]) | Cocklebur plant response rating (cocklebur; [3]) | Cocklebur plant response rating (cocklebur; [4]) | Cocklebur plant response rating (0 to 10 scale) (cocklebur; Preemergence, Rate 250 g/ha) | Plant response rating, Cocklebur (cocklebur; [5]) | Corn plant response rating (corn; [1]) | Plant response rating, Corn (corn; [2]) | Corn plant response rating (corn; [6]) | Plant response rating, Corn (corn; [7]) | Corn plant response rating (corn; [3]) | Corn plant response rating (corn; [4]) | Corn plant response rating (0 to 10 scale) (corn; Preemergence, Rate 250 g/ha) | Plant response rating, Corn (corn; [5]) | Crabgrass plant response rating (crabgrass; [1]) | Plant response rating, Crabgrass (crabgrass; [2]) | Crabgrass plant response rating (crabgrass; [6]) | Plant response rating, Crabgrass (crabgrass; [7]) | Crabgrass plant response rating (crabgrass; [3]) | Crabgrass plant response rating (crabgrass; [4]) | Plant response rating, Crabgrass (crabgrass; [5]) | Giant foxtail plant response rating (giant foxtail; [1]) | Plant response rating, Giant foxtail (giant foxtail; [2]) | Giant foxtail plant response rating (giant foxtail; [6]) | Plant response rating, Giant foxtail (giant foxtail; [7]) | Giant foxtail plant response rating (giant foxtail; [3]) | Giant foxtail plant response rating (giant foxtail; [4]) | Plant response rating, Giant foxtail (giant foxtail; [5]) | Morningglory plant response rating (morningglory; [1]) | Plant response rating, Morningglory (morningglory; [2]) | Morningglory plant response rating (morningglory; [6]) | Plant response rating, Morningglory (morningglory; [7]) | Morningglory plant response rating (morningglory; [3]) | Morningglory plant response rating (morningglory; [4]) | Plant response rating, Morningglory (morningglory; [5]) | Plant response rating, Redroot pigweed (pigweed; [2]) | Redroot pigweed plant response rating (pigweed; [6]) | Plant response rating, Redroot pigweed (pigweed; [7]) | Redroot pigweed plant response rating (pigweed; [3]) | Redroot pigweed plant response rating (pigweed; [4]) | Plant response rating, Redroot pigweed (pigweed; [5]) | Rape plant response rating (rape; [1]) | Plant response rating, Rape (rape; [2]) | Rape plant response rating (rape; [6]) | Plant response rating, Rape (rape; [7]) | Rape plant response rating (rape; [3]) | Rape plant response rating (rape; [4]) | Plant response rating, Rape (rape; [5]) | Plant response rating, Soybean (soybean; [2]) | Soybean plant response rating (soybean; [6]) | Plant response rating, Soybean (soybean; [7]) | Soybean plant response rating (soybean; [3]) | Soybean plant response rating (soybean; [4]) | Plant response rating, Soybean (soybean; [5]) | Plant response rating, Sugarbeets (sugar beet; [2]) | Sugarbeets plant response rating (sugar beet; [6]) | Plant response rating, Sugarbeets (sugar beet; [7]) | Sugarbeets plant response rating (sugar beet; [3]) | Sugarbeets plant response rating (sugar beet; [4]) | Plant response rating, Sugarbeets (sugar beet; [5]) | Plant response rating, Velvetleaf (velvetleaf; [2]) | Velvetleaf plant response rating (velvetleaf; [6]) | Plant response rating, Velvetleaf (velvetleaf; [7]) | Velvetleaf plant response rating (velvetleaf; [3]) | Velvetleaf plant response rating (velvetleaf; [4]) | Plant response rating, Velvetleaf (velvetleaf; [5]) | Plant response rating, Wheat (wheat; [2]) | Wheat plant response rating (wheat; [6]) | Plant response rating, Wheat (wheat; [7]) | Wheat plant response rating (wheat; [3]) | Wheat plant response rating (wheat; [4]) | Plant response rating, Wheat (wheat; [5]) | Plant response rating, Wild oats (wild oat; [2]) | Wild oats plant response rating (wild oat; [6]) | Plant response rating, Wild oats (wild oat; [7]) | Wild oats plant response rating (wild oat; [3]) | Wild oats plant response rating (wild oat; [4]) | Plant response rating, Wild oats (wild oat; [5]) | Nutsedge plant response rating (purple nutsedge; [1]) | Plant response rating, Nutsedge (purple nutsedge; [2]) | Nutsedge plant response rating (purple nutsedge; [6]) | Plant response rating, Nutsedge (purple nutsedge; [7]) | Nutsedge plant response rating (purple nutsedge; [3]) | Nutsedge plant response rating (purple nutsedge; [4]) | Plant response rating, Nutsedge (purple nutsedge; [5]) | Plant response rating, Rice (0 to 10 scale, 0 is no effect, 10 is complete control) (rice; [8]) | Rice plant response rating (0 to 10 scale, 0 is no effect, 10 is complete control) (rice; [9]) | Rice plant response rating (rice; [10]) | Rice plant response rating (rice; [11]) | Plant response rating, S. Flatsedge (0 to 10 scale, 0 is no effect, 10 is complete control) (smallflower flatsedge; [8]) | S. Flatsedge plant response rating (0 to 10 scale, 0 is no effect, 10 is complete control) (smallflower flatsedge; [9]) | S. Flatsedge plant response rating (smallflower flatsedge; [10]) | S. Flatsedge plant response rating (smallflower flatsedge; [11]) | Plant response rating, Ducksalad (0 to 10 scale, 0 is no effect, 10 is complete control) (duck salad; [8]) | Ducksalad plant response rating (0 to 10 scale, 0 is no effect, 10 is complete control) (duck salad; [9]) | Ducksalad plant response rating (duck salad; [10]) | Ducksalad plant response rating (duck salad; [11]) | Plant response rating, Barnyardgrass (0 to 10 scale, 0 is no effect, 10 is complete control) (bamyardgrass; [8]) | Barnyardgrass plant response rating (0 to 10 scale, 0 is no effect, 10 is complete control) (bamyardgrass; [9]) | Barnyardgrass plant response rating (bamyardgrass; [10]) | Barnyardgrass plant response rating (bamyardgrass; [11])
